In paper PMC7413254 (Nature Communications, 2020):
Several values for one entry are separate records, joined by “and”; a condition that tells them apart may be missing. Identical values can stand only once. Like-named read-outs stand apart in the source and are kept apart here.

Assays:
C4^Dd2 parasites = experiment: P. falciparum proliferation assay; type: cell-based, Plasmodium falciparum
Method: (§1) Parasite proliferation was measured in 96-well plates using a fluorescent DNA-intercalating dye[68],[69]. Synchronous ring-stage parasite cultures (~1% haematocrit and 1% parasitaemia) were incubated with different concentrations of the test compound for 72 h at 37 °C and under reduced O2 conditions. The assay was terminated by freezing and thawing the samples, after which 100 μL of SYBR Safe DNA Gel Stain (Molecular Probes; 0.2 μL/mL) in a lysis buffer (20 mM Tris-HCl, 5 mM EDTA, 0.008% (w/v) saponin and 0.08% (v/v) Triton X-100; pH 7.5) was added to each well. The fluorescence from each well was measured using a Tecan Infinite M1000 PRO microplate reader (excitation wavelength 490 nm; emission wavelength 520 nm). The fluorescence values for the wells containing the highest concentration of the compound were averaged and this value was then subtracted from each of the well values obtained for that 96-well plate. The level of parasite proliferation in the presence of each compound concentration was expressed as a percentage of the proliferation measured in the absence of the compound. The IC50s were determined in SigmaPlot Windows Version 11.0 by a least-squares fit of the equation y = a/[1 + ([compound]/IC50)^c] to the data, where y is the percent parasite proliferation, a is the maximum change in the percent parasite proliferation, and c is a fitted constant. In all cases, five independent experiments were performed (on different days), and within each experiment measurements were averaged from three replicates.

3D7 strain = experiment: P. falciparum proliferation assay; type: cell-based, Plasmodium falciparum
Method: as §1

7G8 strain = experiment: P. falciparum proliferation assay; type: cell-based, Plasmodium falciparum
Method: as §1

C6^7G8 parasites = experiment: P. falciparum proliferation assay; type: cell-based, Plasmodium falciparum
Method: as §1

C2^GC03 parasites = experiment: P. falciparum proliferation assay; type: cell-based; conditions: Plasmodium falciparum
Method: as §1

PfNT1 = target: T1, PfNT1 (Plasmodium falciparum, UniProt Q8IDM6); type: cell-based
T1 construct: expressed in transfected cells; host or cells: Xenopus laevis oocytes (stage V-VI), cRNA-injected
T1 sequence (Q8IDM6 whole entry): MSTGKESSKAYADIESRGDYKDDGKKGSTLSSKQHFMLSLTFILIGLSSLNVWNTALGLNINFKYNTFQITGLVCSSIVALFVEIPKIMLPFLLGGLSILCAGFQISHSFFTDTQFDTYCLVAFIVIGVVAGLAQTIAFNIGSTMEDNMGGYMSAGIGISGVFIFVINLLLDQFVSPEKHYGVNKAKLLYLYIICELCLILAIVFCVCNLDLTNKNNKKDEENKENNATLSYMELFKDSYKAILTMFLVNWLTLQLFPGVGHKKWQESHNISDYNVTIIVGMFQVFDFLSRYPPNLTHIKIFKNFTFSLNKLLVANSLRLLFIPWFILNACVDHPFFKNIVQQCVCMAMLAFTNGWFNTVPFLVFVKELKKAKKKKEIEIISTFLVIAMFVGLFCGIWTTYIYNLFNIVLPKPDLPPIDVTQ
Method: (§2) Measurements of the cis-inhibition of [^3H]CQ transport via PfCRT^Dd2 or PfCRT^Ecu1110 by a test solute (data presented in Fig. 1 and Supplementary Data 1,2) were performed on oocytes three days post-cRNA-injection[15],[21]. Ten oocytes were washed twice with the relevant ND96 buffer. The assay commenced with the addition of ND96 buffer supplemented with 0.25 μM [^3H]CQ, 15 μM unlabelled CQ, and the unlabelled solute under study (at a concentration specified in the figure legends and Supplementary Data 1, 2). The assay was terminated by removing the reaction buffer and washing the oocytes with ice-cold ND96 buffer. The oocytes were lysed in 10% (w/v) sodium dodecyl sulfate (SDS) and the radioactivity accumulated within each oocyte was measured with a MicroBeta^2 microplate liquid scintillation analyser (PerkinElmer).
(§3) Measurements of the uptake or efflux of a number of other radiolabelled compounds (Fig. 3k; Supplementary Fig. 3) were performed using the methods described above for [^3H]CQ and [^3H]VF-6, respectively.

non-expressing oocytes = type: cell-based, Xenopus laevis
Method: as §2, §3

Dd2 strain = experiment: P. falciparum proliferation assay; type: cell-based, Plasmodium falciparum
Method: as §1

[1] = Plasmodium falciparum, DD2, C4Dd2, 72 h, 37 °C, SYBR Safe, mean ± SEM, n = 5, read-out: IC50 (μM), parasite proliferation, Control
[2] = Plasmodium falciparum, 3D7, 72 h, 37 °C, SYBR Safe, mean ± SEM, n = 5, read-out: IC50 (μM), parasite proliferation, Control
[3] = read-out: IC50 (μM), parasite proliferation, + 1 μM VP, SEM
[4] = Plasmodium falciparum, 72 h, read-out: IC50 (μM), parasite proliferation, Control, SEM
[5] = read-out: IC50 (μM), parasite proliferation, + 1 μM VP, 7G8, + 1 μM verapamil, 72 h, mean ± SEM, n = 5
[6] = Plasmodium falciparum, C67G8, 72 h, 37 °C, SYBR Safe, mean ± SEM, n = 5, read-out: IC50 (μM), parasite proliferation, Control
[7] = read-out: IC50 (μM), parasite proliferation, + 1 μM VP, C67G8, + 1 μM verapamil, 72 h, mean ± SEM, n = 5
[8] = 72 h, read-out: IC50 (μM), parasite proliferation, + 1 μM VP, SEM
[9] = C2GC03, 72 h, 37 °C, SYBR Safe, mean ± SEM, n = 5, read-out: IC50 (μM), parasite proliferation, Control

| Compound | IC50 (C4^Dd2 parasites; [1]) | IC50 (3D7 strain; [2]) | IC50 (3D7 strain; [3]) | IC50 (7G8 strain; [4]) | IC50 (7G8 strain; [5]) | IC50 (C6^7G8 parasites; [6]) | IC50 (C6^7G8 parasites; [7]) | IC50 (C2^GC03 parasites; [8]) | IC50 (C2^GC03 parasites; [9]) | [3H]hypoxanthine transport into the oocyte, PfNT1 (PfNT1) | [3H]hypoxanthine transport into the oocyte, non-expressing oocytes (non-expressing oocytes) | IC50 (C4^Dd2 parasites; read-out: IC50 (μM), parasite proliferation, + 1 μM VP, C4Dd2, + 1 μM verapamil, 72 h, mean ± SEM, n = 5) | IC50 (Dd2 strain; Plasmodium falciparum, DD2, 72 h, read-out: IC50 (μM), parasite proliferation, Control, SEM) | IC50 (Dd2 strain; read-out: IC50 (μM), parasite proliferation, + 1 μM VP, Dd2, + 1 μM verapamil, 72 h, mean ± SEM, n = 5) |
| --- | --- | --- | --- | --- | --- | --- | --- | --- | --- | --- | --- | --- | --- | --- |
| CC(C)(C)NC(=O)[C@@H]1CN(Cc2cccnc2)CCN1C[C@@H](O)C[C@@H](Cc1ccccc1)C(=O)N[C@H]1c2ccccc2C[C@H]1O [Indinavir, indinavir] | 2.2 ± 0.1 µM | 4.1 ± 0.1 µM | 2.1 ± 0.8 µM | 2.5 ± 0.2 µM | 0.5 ± 0.06 µM | 1.1 ± 0.05 µM | 0.4 ± 0.02 µM | 1.2 ± 0.8 µM | 4.2 ± 0.2 µM | – | – | – | – | – |
| O=c1[nH]cnc2nc[nH]c12 [[3H]hypoxanthine] | – | – | – | – | – | – | – | – | – | 100 % PfNT1 | 12.63 % PfNT1 and 13.63 % PfNT1 and 15.33 % PfNT1 and 10.43 % PfNT1 and 11.43 % PfNT1 | – | – | – |
| Cc1c(O)cccc1C(=O)N[C@@H](CSc1ccccc1)[C@H](O)CN1C[C@H]2CCCC[C@H]2C[C@H]1C(=O)NC(C)(C)C [Nelfinavir, nelfinavir] | 4.1 ± 0.1 µM | 15.3 ± 1.2 µM | 5.6 ± 0.8 µM | 7.3 ± 0.6 µM | 3.1 ± 0.3 µM | 6.2 ± 0.3 µM | 1.4 ± 0.1 µM | 4.6 ± 0.3 µM | 13.1 ± 0.8 µM | – | – | 0.7 ± 0.03 µM | 5.7 ± 0.5 µM | 0.5 ± 0.02 µM |
